Results on 2 molecules are retold here after patent EP0080940B1, “Derivatives of 2-phenyl-morpholine and medical compositions” (LABORATOIRE L. LAFON Société anonyme dite:, priority 1981, dated 1983).

Holding throughout (format): in vivo
The subject of data set [1] is souris. The data set is described as follows: Interaction with yohimbine, spontaneous motility. The settings on record: yohimbine 0,5 mg/kg i.p. alone. As to the method: Des lots de 12 souris reçoivent la yohimbine (0,5 mg/kg i.p.) et le CRL 40914 respectivement 60 et 30 min avant d'être placées en actimètre où leur motilité est enregistrée pendant une demi-heure.

Data set [2] relates to souris. The data set can be described thus: Interaction with yohimbine, temperature. The settings on record: yohimbine 0,5 mg/kg i.p. alone. On the procedure:
Des lots de 12 souris reçoivent une injection intrapéritonéale de 0,5 mg/kg de yohimbine, une demi-heure avant l'administration de CRL 40914.

Data set [3] has as its system rats. The data set can be described thus: Interaction with apomorphine, rat. The settings on record: rat. On the procedure: Le CRL 40914 est administré aux rats une demi-heure avant l'injection sous-cutanée de 0,5 mg/kg d'apomorphine.
(§1) On a résumé ci-après les résultats des essais qui ont été entrepris chez l'animal avec le CRL 40915, les modalités opératoires étant celles données ci-dessus pour le CR L 40914.

The test system of data set [4] is souris. The data set is described as follows: Action on spontaneous motility (actimeter). The settings on record: 32 mg/kg et 128 mg/kg. As to the method:
Une demi-heure après avoir reçu le CRL 40914, des souris sont placées en actimètre où leur motilité est enregistrée pendant 30 min.
as §1

The test system of data set [5] is souris. The data set is described as follows: Four plates test, traction and electroshock. The settings on record: 32 mg/kg et 128 mg/kg.
From the text: Le test est pratiqué sur des lots de 10 souris, une demi-heure après l'administration de CRL 40914.
as §1

Data set [6] has as its system rats. The data set can be described thus: Interaction with amphetamine. The settings on record: rat. On the procedure: L'amphétamine (2 mg/kg) est injectée par voie intrapéritonéale à des lots de 12 rats, une demi-heure après l'administration de CRL 40914.
as §1

Data set [7] concerns souris. The data set is described as follows: Interaction with apomorphine, mouse. As to the method:
Des lots de 6 souris reçoivent le CRL 40914 une demi-heure avant l'injection sous-cutanée d'apomorphine, à la dose de 1 mg/kg ou 16 mg/kg.
as §1

The test system of a further data set is rat. The data set is described as follows: Global behaviour and reactivity, rat. The settings on record: rat. On the procedure:
(§2) On a résumé ci-après les résultats des essais qui ont été entrepris chez l'animal avec le CRL 40914, ce produit étant administré, sauf indications contraires, en solution dans l'eau (à pH 5) par voie intrapéritonéale sous un volume de 20 ml/kg chez la souris mâle et de 5 ml/kg chez le rat mâle.
(§3) Des lots de 3 animaux sont observés avant, puis 15 min, 30 min, 1 h, 2 h, 3 h et 24 h après l'administration de CRL 40914. On observe ce qui suit:
as §1

In data set [8] the test system is souris. The data set can be described thus: Motility reduced by habituation to the enclosure. As to the method:
Après 18 h de séjour dans les actimètres, les souris (6 par dose, 12 témoins) reçoivent le CRL 40914. Elles sont aussitôt replacées dans leurs enceintes respectives et, une demi-heure plus tard, on enregistre leur motilité pendant 30 min.
as §1

In data set [9] the test system is souris. The data set can be described thus: Interaction with oxotremorine. On the procedure:
Le CRL 40914 est administré à des lots de 6 souris une demi-heure avant l'injection intrapéritonéale de 0,5 mg/kg d'oxotrémorine.
as §1

The test system of data set [10] is souris. The data set is described as follows: Asphyxic anoxia (gallamine triethiodide). The settings on record: 8 mg/kg, 32 mg/kg et 128 mg/kg, triiodoéthylate de gallamine. As to the method: Des lots de 10 souris reçoivent le CRL 40914 une demi-heure avant l'administration intrapéritonéale de 32 mg/kg de triiodoéthylate de gallamine (agent curarisant de référence).
as §1

Another data set deals with souris mâle. The data set can be described thus: Acute toxicity by the i.p. route (DL-0, DL-50). The settings on record: voie i.p. On the procedure:
as §2
(§4) Chez la souris mâle, la DL-0 (dose maximale non mortelle) par voie i.p. est supérieure à 128 mg/kg.
as §1
(§5) Chez la souris mâle, la DL-0 (dose maximale non mortelle) par voie i.p. est supérieure à 256 mg/kg, et la DL-50 par voie i.p. est de l'ordre de 500 mg/kg environ.

The nature of data set [11]: Acute toxicity by the i.p. route (DL-0, DL-50). The settings on record: mouse, in vivo, ip; souris mâle, voie i.p. As to the method:
as §2, §4, §1, §5

Data set [12] relates to souris. The data set can be described thus: Motility reduced by hypoxic aggression. As to the method: Une demi-heure après avoir reçu le CRL 40914, les souris (10 par dose, 20 témoins) sont soumises à une anoxie hypobare aiguë [dépression de 600 mm Hg (soit environ 8 x10^4 pascals) en 90 s puis détente de 45 s] puis elles sont placées en actimètre où leur motilité est enregistrée pendant 10min.
as §1

In data set [13] the test system is souris. The data set is described as follows: Global behaviour and reactivity, mouse. On the procedure: as §2, §3, §1
For data set [14], the system named is souris. The data set can be described thus: Interaction with reserpine. The settings on record: 128 mg/kg. On the procedure: Quatre heures après l'injection intrapéritonéale de 2,5 mg/kg de réserpine, des lots de 6 souris reçoivent le CRL 40914.
as §1

Where two headings read alike, the source gives them in different places. Some results are limits rather than exact numbers.

`COC(=O)[C@@H]1[C@H]2C[C@H]3c4[nH]c5ccccc5c4CCN3C[C@@H]2CC[C@@H]1O` [yohimbine, reference compound]: in the data set on souris [1], the “activité motrice spontanée” value was “ne modifie pas l'activité motrice spontanée”. Also, in the data set on souris [2], the température rectale entry is “ne modifie pas la température rectale”.

For `Cc1ccccc1C1CN(C)CCO1` (stereo not shown) [CRL 40915, Chlorhydratede 2-o-tolyl-4-méthyl-morpholine], the “stéréotypies produites par l'apomorphine” value with rats [3] is given as “ne modifie pas les stéréotypies produites par l'apomorphine”. In addition, the “activité motrice spontanée” value in the data set on souris [4] was “diminution importante de l'activité motrice spontanée”. Besides, in the data set on souris [5], the “déficit moteur (traction)” value is on record as “ne provoque pas de déficit moteur majeur”. Moreover, in the data set with souris [5], the “effets convulsivants de l'électrochoc” value is given as “s'oppose aux effets convulsivants de l'électrochoc”. In addition, the “nombre de passages punis (test des quatre plaques)” value with souris [5] is recorded as “diminue le nombre de passages punis”. The “stéréotypies amphétaminiques” value with rats [6] is “ne sont pas modifiées”. In addition, the “action hypothermisante de l'apomorphine” value in the data set on souris [7] (32 mg/kg et 128 mg/kg) is reported as “s'oppose aux doses de 32 mg/kg et 128 mg/kg à l'action hypothermisante de l'apomorphine”. The “indices de verticalisation et de stéréotypies (apomorphine)” value in the data set on souris [7] (128 mg/kg, faible dose (1 mg/kg) d'apomorphine) is on record as “diminue les indices de verticalisation et de stéréotypies”. For the same molecule, the “effet intrinsèque sur la température” value in the data set on souris [7] (doses voisines de 32 mg/kg) and with souris [9] (32 mg/kg et 128 mg/kg) was “effet hypothermisant intrinsèque” throughout. For the same molecule, the signes entry in the data set on rat (1 mg/kg i.p.) is listed as “pas de signes particuliers”. For the same molecule, the mydriase result in the data set with rat (4 mg/kg i.p.) is listed as “mydriase modérée pendant 30 minutes”; in the data set with rat (16 mg/kg i.p.) it was “mydriase pendant 30 à 60 minutes”; with rat (64 mg/kg i.p.) it was “mydriase pendant 1 heure”. The sédation entry is listed as “sédation pendant 30 minutes” with rat (4 mg/kg i.p.); “sédation pendant 1 à 2 heures” in the data set with rat (16 mg/kg i.p.); “sédation pendant 1 à 2 heures” in the data set on rat (64 mg/kg i.p.); “sédation fugace pendant 15 à 30 minutes” in the data set on souris [13] (8 mg/kg i.p.); “sédation pendant 1 heure” in the data set with souris [13] (32 mg/kg i.p.); “sédation avec diminution de la réaction d'agressivité pendant 2 heures” in the data set on souris [13] (128 mg/kg i.p.). The piloérection entry in the data set on rat (16 mg/kg i.p.) is reported as “piloérection”; with rat (64 mg/kg i.p.), “piloérection pendant 1 heure”. For the same molecule, the hypothermie was -1,9 °C in the data set with rat (64 mg/kg i.p., pendant 30 à 60 minutes); -1,5 °C in the data set with souris [13] (8 mg/kg i.p., pendant 1 heure); -2,8 °C with souris [13] (32 mg/kg i.p., pendant 1 heure); -2,9 °C in the data set on souris [13] (128 mg/kg i.p., pendant 2 heures). Further, the “activité motrice chez la souris habituée à son enceinte” value with souris [8] was “ne provoque pas de reprise de l'activité”. In addition, the “hypothermie induite par l'oxotrémorine” value with souris [9] (32 mg/kg et 128 mg/kg) was “s'oppose à l'hypothermie induite par l'oxotrémorine”. Moreover, in the data set on souris [9] (128 mg/kg), the “tremblements induits par l'oxotrémorine” value was “semblent partiellement antagonisés”. Moreover, in the data set with souris [9] (oxotrémorine 0,5 mg/kg i.p.), the “signes de stimulation cholinergique périphérique provoqués par l'oxotrémorine” value is “laisse inchangés les signes de stimulation cholinergique périphérique”. Also, the “apparition des convulsions et de la mort (anoxie asphyxique)” value in the data set with souris [10] is recorded as “retarde l'apparition des convulsions et de la mort”. Besides, the “DL-0 (dose maximale non mortelle)” value in the data set with souris mâle is recorded as above 256 mg/kg. Moreover, the median lethal dose (LD50) (commonly the dose at which mortality reaches 50%) in [11] was around 500 mg/kg. Besides, the “récupération motrice après agression hypoxique” value was “n'entraîne pas d'amélioration de la récupération motrice” with souris [12] and “aggravation” in the data set on souris [12] (32 mg/kg et 128 mg/kg). The symptômes result in the data set with souris [13] (2 mg/kg i.p.) is given as “pas de symptômes nets”. Also, in the data set on souris [13] (128 mg/kg i.p.), the convulsions result is reported as “convulsions pendant 15 minutes”. Further, the hyporéactivité au toucher result in the data set with souris [13] (128 mg/kg i.p.) is recorded as “hyporéactivité au toucher pendant 15 minutes”. Also, the salivation et lacrymation result in the data set with souris [13] (128 mg/kg i.p.) was “salivation et lacrymation pendant 30 minutes”. Moreover, in the data set with souris [14], the “hypothermie réserpinique” value was “aggrevation de I-hypothermie réserpinique”. In addition, the “ptosis réserpinique” value in the data set with souris [14] was “le ptosis déjà maximal n'est pas modifié”.
